Converted amounts (≈) assume the structure as drawn. Read-outs that look alike come from different tables or passages of the source. Marks after values point to notes of the source that are not given here. One block for each compound: values may come before it.
Assays:
Type in all cases: physicochemical
[1] = Slurry conversion (suspension crystallization), resulting solid identified by PXRD; settings: room temperature; for Resulting solid by PXRD: stirred 2 weeks
Method: To determine the relative thermodynamic stability relationship between two polymorphs, a slurry conversion experiment was also studied at room temperature using PXRD.
Polymorph I, 20 mg, was suspended in various solvents alone with trace amount of polymorph II seeding crystals in 10 mL glass vials. The suspensions were stirred by magnetic stirring bars for 2 weeks before the solids were filtered and analyzed by PXRD. […] Because the solubility in THF is higher than that in acetone (Table A), low solubility is not the reason for the slow conversion kinetics.

[2] = Suspension of polymorphs in pH 2 dissolution medium (HCl salt formation test); settings: for Color change of suspended particles: at least 15 minutes after suspension; for Appearance of suspension: one day after preparation
Source text: To further test the HCl salt formation hypothesis. Both polymorph I and II were suspended in the above dissolution medium. […] It is also possible that compaction prior to the IDR experiment modify the crystals of polymorph I and render it the ability of rapid conversion. The XRD pattern of polymorph I pellets compressed at various pressures show some degree of amorphous content, which may be connected to its rapid salt formation during the IDR experiment.

[3] = Rotating disc intrinsic dissolution rate (IDR) determination; settings: for Color change of pellet side exposed to dissolution medium (solid-state conversion): 0.05M KCl, pH 2 buffer, original pellet yellow; for IDR (n = 3): pH = 2 buffer (0.01 N HCl and 0.05 M KCl) at 23° C.
Method: Rotating Disc Intrinsic Dissolution Rate (IDR) Determination. The IDR was measured using a fiber optic UV automated dissolution system. The dissolution process was monitored in some instances continuously at 426.2 nm using the fiber optic probe with 10 data points taken per minute. To prepare the compressed disc for the experiment, the powders were compressed in a stainless steel (SS) die, (1¼″ dia×1″, ID 3/16″) using a high speed steel (HSS) punch (diameter 3/16″ and length 3½″). The HSS punch was inserted into the die to a distance of about ¾″, leaving about ¼″ for placement of about 10 mg of the drug into the die cavity. A SS base plate (diameter ¼″) was placed to cover the cavity. The entire assembly was then secured by a 2-bolt holder. A Carver press was used to compress the powder at to ˜1,000 lbs (˜37,000 psi) for 3 minutes. The die and holder was removed from the Carver press and the punch was pulled back a little to allow the pellet to relax/expand. The die was then tightly attached on the HSS punch by a set-screw. The entire punch and die assembly containing the drug pellet with one face of the drug pellet exposed was removed as a unit from the holder and was attached to an electric motor. The die was rotated at 300 rpm and was lowered into the dissolution medium 3 min after the initiation of the data collection program. The dissolution medium was degassed and was contained in a 500 mL water jacketed beaker (Pyrex, No.1000). The data collect during the first 3 min provided a baseline value for each dissolution experiment. The dissolution medium consisted of pH=2 solution (0.01 N HCl and 0.05 M KCl). The die was positioned such that the drug compact was about 2.5″ from the bottom of the 500 mL dissolution vessel and about the same distance from the liquid surface. The intrinsic dissolution profile was plotted using Microsoft Excel and the intrinsic dissolution rate was calculated automatically by the program according to equation (1). The volume of dissolution medium was 300 mL. The surface area of the pellet exposed to dissolution medium was 0.177 cm^2. The time period for a dissolution run was usually 15 min but was varied as needed.

[4] = Estimation of the solubility of a polymorph in various solvents; settings: thermodynamic from solid
Method: Estimation of the Solubility of a Polymorph in Various Solvents.
Approximately 1.5 mg of the polymorph, was transferred to 10 mL glass vials (tared) and was weighed (accurate to 0.1 mg). Solvents were added to the vials (one solvent each vial) in a step-wise fashion. After each addition, the vial was capped and shaken. The dissolution of solid was visually observed. If no obvious dissolution was observed, more solvent was added immediately. If dissolution was apparent, the vial was left on the bench for at least 30 minutes before the next addition of solvent. This step was repeated until no crystals were visible against a black and a white background. The solubility was then bracketed by dividing the weight by the final volume and the volume before the last addition. If a solid remained after the addition of 10 mL solvent, the solubility was expressed as less than the weight divided by the final volume. If the solid was completely dissolved after the first addition of solvent, the solubility was expressed as greater than the weight divided by the solvent volume. The solubility values were expressed as mg/mL. All experiments were conducted at room temperature.
The estimated solubilities of 5-[5-fluoro-2-oxo-1,2-dihydroindol-(3Z)-ylidenmethyl]-2,4-dimethyl-1H-pyrrole-3-carboxylic acid (2-pyrrolidin-1-ylethyl)-amide in various solvents are presented in Table A. The experiments were carried out using polymorph I at room temperature. The solubilities may be divided into three groups.

[5] = pKa
[6] = Equilibrium solution pH of non-buffered aqueous medium after adding the compound; settings: for Equilibrium solution pH: non-buffered aqueous medium, ambient temperature
Method: Determination of the pH—Solubility Profile of Polymorphs.
About 3 mL aqueous solutions of various concentrations of either HCl or NaOH, providing a pH from 1-13, were transferred to a 10 ml glass vial. A sufficient amount of the polymorph was added. The vials were wrapped with aluminum foil and manually shaken. They were allowed to sit in the fume hood overnight prior to any further treatment.
As expected, the equilibrium solubility of this compound is higher at lower solution pH (Table A). However, the dissolution of a particle in a dissolution medium depends on the pH in the diffusion layer. The pH value of the diffusion layer in intimate contact with the solid (pHh=0) may be obtained from equilibrium pH of the solution, measured by a pH meter. Results are presented in Table B. When the initial pH is higher than 10, the solubility of 5-[5-fluoro-2-oxo-1,2-dihydroindol-(3Z)-ylidenmethyl]-2,4-dimethyl-1 H-pyrrole-3-carboxylic acid (2-pyrrolidin-1-ylethyl)-amide is very low. Therefore, the pH of the solution at equilibrium is almost not changed. On the other hand, if the initial pH<10, more 5-[5-fluoro-2-oxo-1,2-dihydroindol-(3Z)-ylidenmethyl]-2,4-dimethyl-1H-pyrrole-3-carboxylic acid (2-pyrrolidin-1-ylethyl)-amide goes into solution and the equilibrium solution pH is higher than the initial pH (Table B).

Resulting solid by PXRD ([1]; Acetone suspension): converts to polymorph II
Resulting solid by PXRD ([1]; Methanol suspension): converts to polymorph II
Resulting solid by PXRD ([1]; THF suspension): appears stable
Color change of suspended particles [2]: no change of color
Appearance of suspension [2]: orange-red needle-shaped crystals
Color change of pellet side exposed to dissolution medium (solid-state conversion) [3]: orange-red
IDR (n = 3) [3]: 1.08 ± 0.09^c mg/min/cm^2
solubility ([4]; aqueous buffer, Water (pH = 2), 23° C., read-out: Solubility): 3110 µg/mL (≈ 7840 µM)
solubility ([4]; aqueous buffer, Water (pH = 6), 23° C., read-out: Solubility): 5 µg/mL (≈ 12.6 µM)
solubility ([4]; organic solvent or mixture, Acetone, 23° C., read-out: Solubility): < 160 µg/mL
solubility ([4]; organic solvent or mixture, Acetonitrile, 23° C., read-out: Solubility): < 80 µg/mL
solubility ([4]; organic solvent or mixture, CH2Cl2, 23° C., read-out: Solubility): < 120 µg/mL
solubility ([4]; organic solvent or mixture, Chloroform, 23° C., read-out: Solubility): < 110 µg/mL
solubility ([4]; organic solvent or mixture, DMF, 23° C., read-out: Solubility): > 1500 µg/mL
solubility ([4]; organic solvent or mixture, DMSO, 23° C., read-out: Solubility): 1500 to 3000 µg/mL (≈ 3780 to 7570 µM)
solubility ([4]; organic solvent or mixture, Dioxane, 23° C., read-out: Solubility): 180 to 200 µg/mL (≈ 454 to 504 µM)
solubility ([4]; organic solvent or mixture, Ethyl acetate, 23° C., read-out: Solubility): < 280 µg/mL
solubility ([4]; organic solvent or mixture, Hexane, 23° C., read-out: Solubility): < 130 µg/mL
solubility ([4]; organic solvent or mixture, Isopropanol, 23° C., read-out: Solubility): < 140 µg/mL
solubility ([4]; organic solvent or mixture, PEG 400, 23° C., read-out: Solubility): 300 to 430 µg/mL (≈ 757 to 1080 µM)
solubility ([4]; organic solvent or mixture, THF, 23° C., read-out: Solubility): 320 to 400 µg/mL (≈ 807 to 1010 µM)
solubility ([4]; organic solvent or mixture, Toluene, 23° C., read-out: Solubility): < 130 µg/mL
solubility ([4]; organic solvent or mixture, ethanol, 23° C., read-out: Solubility): 170 to 190 µg/mL (≈ 429 to 479 µM)
solubility ([4]; organic solvent or mixture, methanol, 23° C., read-out: Solubility): 210 to 310 µg/mL (≈ 530 to 782 µM)
Structure (SMILES): Cc1[nH]c(/C=C2\C(=O)Nc3ccc(F)cc32)c(C)c1C(=O)NCCN1CCCC1 [polymorph I, 5-[5-fluoro-2-oxo-1,2-dihydroindol-(3Z)-ylidenmethyl]-2,4-dimethyl-1H-pyrrole-3-carboxylic acid (2-pyrrolidin-1-ylethyl)-amide]

pKa [5]: 8.5
pH of the diffusion layer in contact with the solid (pHh=0) ([6]; bulk dissolution medium pH as low as 1.4): > 5
Solubility at initial pH higher than 10 ([6]; initial pH higher than 10, aqueous): very low
Equilibrium solution pH ([6]; initial solution pH 1.43): 5.36
Equilibrium solution pH ([6]; initial solution pH 2.19): 5.20
Equilibrium solution pH ([6]; initial solution pH 3.22): 6.98
Equilibrium solution pH ([6]; initial solution pH 5.47): 8.13
Equilibrium solution pH ([6]; initial solution pH 6.73): 8.31
Equilibrium solution pH ([6]; initial solution pH 7.24): 8.49
Equilibrium solution pH ([6]; initial solution pH 7.61): 8.87
Equilibrium solution pH ([6]; initial solution pH 10.07): 9.86
Equilibrium solution pH ([6]; initial solution pH 11.53): 11.61
Equilibrium solution pH ([6]; initial solution pH 12.50): 12.52
Equilibrium solution pH ([6]; initial solution pH 13.20): 13.18
solubility ([4]; DMF and pH<=2 water (one solvent per vial), organic solvent or mixture, DMSO, DMF and pH<=2 water, polymorph I, room temperature, read-out: Solubility (Group III solvents)): > 1000 µg/mL
solubility ([4]; dioxane and THF (one solvent per vial), organic solvent or mixture, methanol, ethanol, dioxane and THF, polymorph I, room temperature, read-out: Solubility (Group II solvents)): 100 to 400 µg/mL (≈ 252 to 1010 µM)
solubility ([4]; organic solvent or mixture, isopropyl alcohol, CH2Cl2, ethyl acetate, acetonitrile, acetone, chloroform, toluene, hexane and pH>6 water, polymorph I, room temperature, read-out: Solubility (Group I solvents)): < 300 µg/mL
Structure (SMILES): Cc1[nH]c(/C=C2\C(=O)Nc3ccc(F)cc32)c(C)c1C(=O)NCCN1CCCC1 [5-[5-fluoro-2-oxo-1,2-dihydroindol-(3Z)-ylidenmethyl]-2,4-dimethyl-1H-pyrrole-3-carboxylic acid (2-pyrrolidin-1-ylethyl)-amide]

Color change of suspended particles [2]: no change of color
Appearance of suspension [2]: orange-red needle-shaped crystals
Color change of pellet side exposed to dissolution medium (solid-state conversion) [3]: No obvious color change
IDR of polymorph II relative to apparent IDR of polymorph I ([3]; pH 2 buffer at 23° C.): about three times
IDR (n = 3) [3]: 3.54 ± 0.15 mg/min/cm^2
Structure (SMILES): Cc1[nH]c(/C=C2\C(=O)Nc3ccc(F)cc32)c(C)c1C(=O)NCCN1CCCC1 [polymorph II, 5-[5-fluoro-2-oxo-1,2-dihydroindol-(3Z)-ylidenmethyl]-2,4-dimethyl-1H-pyrrole-3-carboxylic acid (2-pyrrolidin-1-ylethyl)-amide]
Relative thermodynamic stability of the polymorphs [1]: thermodynamically more stable than polymorph I

Reference: patent publication US7452913B2, “Polymorphs of pyrrole substituted 2-indolinone protein kinase inhibitors” (Pharmacia & Upjohn Company, priority 2003, dated 2008)
